Values quoted from earlier work, collected in US20020013261A1, “Methods and compositions for promoting angiogenesis using polyethylene glycol (PEG) polymers” (priority 2000, published 2002).

Test system: vascularization
Settings: purified recombinant protein injected into ischemic skeletal muscle tissue, rabbit chronic limb ischemia

In the case of “basic fibroblast growth factor (bFGF): purified recombinant angiogenic protein”, the vascularization is listed as “modest but significant vascularization”.
